According to patent US7781580B2, “Stilbene derivatives as new cancer therapeutic agents” (Virginia Commonwealth University, priority 2007, dated 2010):

Columns and labels:
[1] = test system: HL60 leukemic cells (xenograft); assay: HL60 xenograft model in SCID mice; assay type: in vivo
Experimental: FIG. 20. Effect of stilbene 4a in vivo. (a) Induction of cell death in vivo by stilbene 4a. Tumor was harvested at 24 hours after treatment for TUNEL assay. (b) Histological sections of tumor. Tumor harvested at 24 hours after injection of stilbene 4a was analyzed by H & E staining. The area with lighter color is the necrotic region. (c) Tumor growth suppression. SCID mice were injected subcutaneously with 5×10^6 HL60 cells at each flank. Once the diameter of tumor reached 5 mm in diameter in majority of mice, mice were treated with 5 daily injection of stilbene 4a. Tumor volume was calculated by the long and short axis of tumor and plotted against days. Each group contains 5 mice.
HL60 leukemic cells were injected subcutaneously into ICR-scid mice (Taconic Inc.) on flank. After tumor becomes visible after 12 days, Mice will be treated with stilbene 4a by intravenous injection after dissolved in 10% DMSO in normal saline. For acute effect study, mice were sacrificed 24 hours after injection and tumor and bone marrow were harvested for histological staining and flow cytometry analysis. For long term effect study, stilbenes were injected intravenously from tail veins at 2 or 10 mg/kg for 5 consecutive days. Negative control mice were treated with 10% DMSO in normal saline and positive control mice were treated with Ara-C at 5 mg/kg. Tumor volume was measured twice a week for 4 weeks by the long and short axes of tumor. Volume was calculated by the formula ab^2/2, in which “a” represents the long axis and “b” the short axis of tumor. Mice were euthanized if the calculated tumor reached 10% of the body weight.

[2] = test system: human umbilical vein endothelial cells (HUVECs); assay: HUVEC flow cytometry and tubulin staining; assay type: cell-based; conditions: 30 nM, 16 hours
Experimental: (a) Flow cytometry analysis. HUVECs were treated with 30 nM of stilbene 4a for 16 hours followed by staining with PI and subjected to flow cytometry analysis. A large subG0/1 population, representing apoptotic cells, appeared along with reverse of the G1/G2 ratio. (b) Immunofluorescent staining of the HUVECs with antibody against tubulin. Nuclei were counter-stained with DAPI. Stilbene 4a disrupted microtubules at a concentration of 30 nM or higher. Stilbene 4c disrupted microtubules at 100 nM.
In order to establish that stilbenes suppress tumor perfusion by damaging tumor endothelial cells, we first incubated human vascular endothelial cells (HUVECs) with various concentrations of stilbenes in vitro. After 24 hours of incubation, cells were processed for flow cytometry analysis with propidium iodide staining. Cells were also fixed with 2% paraformaldehyde and stained with anti-tubulin antibody to examine tubulin disruption and with DAPI to analyze nuclear fragmentation.

Chk1−/− cells = assay: cell cycle analysis, Chk1-/- MDA-MB231 derivative; assay type: cell-based
Experimental: Due to the structural similarity between stilbene 4a and CA4, we investigated the difference in the biological activity of these two compounds in MDA-MB231 breast cancer cells and their Chk2−/− derivatives. […] MDA-MB231 cells were treated with 10 nM stilbene 4a or 1 nM CA4. […] However, a difference in cell cycle change was observed following treatment with 30 nM of stilbene 4a versus 3 nM of CA4. […] This was also the case for cells treated with 100 nM stilbene 4a. A significant subG1/0 population was also noted. […] One possible effect could be a DNA damage response, which is a common mechanism of multiple chemotherapeutic agents but not one of pure microtubule-interfering agents such a paclitaxel or vincristine. […] We then obtained conditional Chk1−/− and Chk2−/− cells, which were derived from the same MDA-MB231 cells for the same flow cytometry analysis. […] In contrast, Chk2−/− cells were more sensitive to stilbene 4a. […] This mechanism is not obvious in higher drug concentrations at which the G2 arrest from microtubule interference is dominant. Therefore, in addition to their microtubule interfering effect, stilbenes have another mechanism to induce cell death. Thus, the use of a Chk2 inhibitor in combination with stilbenes may be a viable approach to enhancing the beneficial therapeutic effects of stilbenes.

UCI101 cells = assay: immunofluorescent staining of tubulin, UCI101; assay type: cell-based; conditions: CA4 10 nM, stilbene 4a 100 nM, 5b 3 μM; 16 hours
Description: Nuclei were stained with DAPI.

COc1cc(/C=C\c2ccc(OC)c(N)c2)cc(OC)c1 [4a, (Z)-5-[2-(3,5-Dimethoxy-phenyl)-vinyl]-2-methoxy-phenylamine]
tumor growth suppression ([1]; 10 mg/kg intravenously daily for 5 days, 12 days after the first injection): 50% | percentage of apoptosis in tumor (TUNEL) ([1]; 10 mg/kg intravenously, 24 hours): 22% | percentage of apoptosis in tumor (TUNEL) ([1]; 50 mg/kg intravenously, 24 hours): 62% | percentage of apoptosis in tumor (TUNEL) ([1]; 100 mg/kg intravenously, 24 hours): 58% | bone marrow TUNEL (acute marrow toxicity) ([1]; 50 and 100 mg/kg, 24 hours): No increase in TUNEL positive cells was observed | apoptosis of HUVECs (flow cytometry) [2]: induced a significant apoptotic population of subG0/1 cells | sensitivity versus MDA-MB231 (Chk1−/− cells): more resistant | microtubule pattern (UCI101 cells): partial disruption of microtubules
